Reference: US20190094204A1, “MEMBRANE TRANSPORTER ASSAY AND METHODS OF USE” (Howard Hughes Medical Institute, priority 2017, published 2019)
Entries after “also recorded” stand apart in the source; their conditions may differ.

How the values were obtained:
EAAT2 [1] = molecular target: T1, EAAT2 (Homo sapiens, UniProt P43004); assay: OSTA of EAAT2-mediated glutamate transport (cytosolic iGluSnFR); type: cell-based; settings: for effect on EAAT2 activity (negative control): 10 mM sodium salicylate, same Na+/K+/glutamate stimulus
T1 construct: expressed in transfected cells; host or cells: HEK-293 (ATCC #CRL-1573)

EAAT2 [2] = molecular target: T1, EAAT2; settings: EAAT2 inhibitor; Tsukada et al., 2005 Neuropharmacology 48:479-491; cited from earlier work
SLC26a3 = SLC26a3 (Homo sapiens, UniProt P40879); settings: washout after 10 mM salicylate; HEK-293 cells expressing SLC26a3
Chain of SLC26a3 (P40879 whole entry, species assumed): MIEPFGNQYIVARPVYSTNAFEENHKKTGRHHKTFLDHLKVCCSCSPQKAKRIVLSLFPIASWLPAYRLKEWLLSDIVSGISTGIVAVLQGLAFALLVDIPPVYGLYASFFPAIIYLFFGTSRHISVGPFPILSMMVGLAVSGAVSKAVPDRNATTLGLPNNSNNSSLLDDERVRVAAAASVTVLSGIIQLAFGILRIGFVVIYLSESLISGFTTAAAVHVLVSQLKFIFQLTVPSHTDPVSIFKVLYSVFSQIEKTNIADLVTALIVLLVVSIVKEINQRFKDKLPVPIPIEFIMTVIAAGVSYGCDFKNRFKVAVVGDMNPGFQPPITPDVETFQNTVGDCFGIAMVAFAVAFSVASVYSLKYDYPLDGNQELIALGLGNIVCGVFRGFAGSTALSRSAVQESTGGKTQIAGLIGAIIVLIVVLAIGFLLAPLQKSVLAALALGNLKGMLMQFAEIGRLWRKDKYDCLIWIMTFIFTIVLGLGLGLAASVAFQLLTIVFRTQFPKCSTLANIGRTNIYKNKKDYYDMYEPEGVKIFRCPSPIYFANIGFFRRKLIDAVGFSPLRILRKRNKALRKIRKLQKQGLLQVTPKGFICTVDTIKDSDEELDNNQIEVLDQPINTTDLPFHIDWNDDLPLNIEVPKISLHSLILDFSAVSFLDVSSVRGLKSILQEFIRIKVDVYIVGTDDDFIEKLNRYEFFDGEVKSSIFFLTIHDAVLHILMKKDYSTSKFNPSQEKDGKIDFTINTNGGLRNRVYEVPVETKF

T1 sequence (P43004 whole entry, species assumed, the tested form may be a part): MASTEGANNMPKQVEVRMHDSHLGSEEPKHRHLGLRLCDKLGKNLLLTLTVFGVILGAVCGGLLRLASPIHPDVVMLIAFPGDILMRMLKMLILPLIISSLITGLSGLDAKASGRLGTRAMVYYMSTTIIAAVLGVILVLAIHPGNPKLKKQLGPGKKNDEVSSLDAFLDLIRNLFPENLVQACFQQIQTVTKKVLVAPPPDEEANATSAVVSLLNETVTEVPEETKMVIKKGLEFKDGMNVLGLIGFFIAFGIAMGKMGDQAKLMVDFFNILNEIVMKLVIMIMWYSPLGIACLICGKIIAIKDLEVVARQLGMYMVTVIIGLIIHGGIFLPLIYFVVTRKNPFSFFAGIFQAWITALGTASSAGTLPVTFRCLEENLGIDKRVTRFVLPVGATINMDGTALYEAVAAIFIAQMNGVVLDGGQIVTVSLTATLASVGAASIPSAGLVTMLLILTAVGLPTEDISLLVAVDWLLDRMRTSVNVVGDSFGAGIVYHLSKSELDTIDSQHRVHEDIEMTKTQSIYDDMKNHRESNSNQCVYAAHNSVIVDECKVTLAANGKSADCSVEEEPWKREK

Compound | onset and washout of EAAT2 inhibition (EAAT2 [1]; 2 μM TFB-TBOA) | effect on EAAT2 glutamate oscillations (EAAT2 [1]; 2 μM TFB-TBOA, combined Na+/K+/glutamate stimulus (0-10 mM glutamate), HEK-293 cells) | IC50 (EAAT2 [2]) [nM] | effect on EAAT2 activity (negative control) (EAAT2 [1]; HEK-293 cells) | effect on EAAT2 activity (negative control) (EAAT2 [1]; HEK-293 cells, listed as sodium salicylate) | oscillating response after washout (SLC26a3)
N[C@H](C(=O)O)[C@H](OCc1cccc(NC(=O)c2ccc(C(F)(F)F)cc2)c1)C(=O)O [TFB-TBOA] | rapid onset and slower washout | complete abrogation of oscillating signal; also recorded: completely abolished the oscillations | ~17 |  |  | 
O=C([O-])c1ccccc1O.[Na+] [salicylate, sodium salicylate] |  |  |  | relative indifference | no effect on EAAT2 activity | return to the initial oscillating response
